Data reported in the NIST ThermoML archive (doi:10.1021/je060411g).

Experiment: molar heat capacity at constant pressure
Conditions: 101.33 kPa

CC(C)C(C)O (stereo not given) [3-methyl-2-butanol]
Conditions | molar heat capacity at constant pressure [J/K/mol]
84.8 K, Glass | 64.32
85.35 K, Glass | 64.92
86.61 K, Glass | 65.12
87.96 K, Glass | 65.91
88.5 K, Glass | 66.12
88.57 K, Glass | 66.46
89.76 K, Glass | 68.19
90.5 K, Glass | 68.52
91.72 K, Glass | 69.65
92.44 K, Glass | 69.5
93.66 K, Glass | 70.82
94.37 K, Glass | 70.42
95.6 K, Glass | 72.69
96.3 K, Glass | 72.33
97.54 K, Glass | 73.76
98.24 K, Glass | 73.35
99.48 K, Glass | 75.44
100.17 K, Glass | 75.01
101.42 K, Glass | 76.81
102.11 K, Glass | 76.45
103.37 K, Glass | 78.23
104.06 K, Glass | 77.94
105.32 K, Glass | 79.77
106 K, Glass | 79.31
107.95 K, Glass | 80.89
109.9 K, Glass | 82.57
110.42 K, Glass | 83.46
110.85 K, Glass | 82.24
111.85 K, Glass | 84.29
112.07 K, Glass | 84.44
113.8 K, Glass | 85.97
114.04 K, Glass | 86.22
115.76 K, Glass | 87.69
116 K, Glass | 87.96
117.71 K, Glass | 89.53
119.67 K, Glass | 91.4
121.44 K, Glass | 93.27
121.62 K, Glass | 93.55
122.07 K, Glass | 94.36
123.27 K, Glass | 95.77
123.58 K, Glass | 95.92
125.24 K, Glass | 98.99
125.53 K, Glass | 98.88
127.2 K, Glass | 102.7
127.49 K, Glass | 103.22
129.14 K, Glass | 107.45
134.82 K, Liquid | 136.07
135.09 K, Liquid | 140.35
136.74 K, Liquid | 138.24
137.01 K, Liquid | 138.6
138.7 K, Liquid | 138.95
138.97 K, Liquid | 138.85
140.69 K, Liquid | 139.38
140.95 K, Liquid | 139.07
142.67 K, Liquid | 139.54
142.93 K, Liquid | 139.3
144.66 K, Liquid | 139.76
144.91 K, Liquid | 139.63
146.65 K, Liquid | 140.2
146.9 K, Liquid | 139.94
148.63 K, Liquid | 140.52
148.88 K, Liquid | 140.31
150.86 K, Liquid | 140.31
152.85 K, Liquid | 140.9
154.84 K, Liquid | 141.35
156.74 K, Liquid | 142.41
156.82 K, Liquid | 141.64
158.09 K, Liquid | 142.73
158.81 K, Liquid | 142.09
160.22 K, Liquid | 143.13
160.79 K, Liquid | 142.41
162.32 K, Liquid | 143.63
162.78 K, Liquid | 142.9
164.37 K, Liquid | 144.12
164.76 K, Liquid | 143.07
166.39 K, Liquid | 145.96
166.75 K, Liquid | 143.51
168.38 K, Liquid | 145.62
168.73 K, Liquid | 143.97
170.37 K, Liquid | 146.06
170.72 K, Liquid | 144.62
172.37 K, Liquid | 145.89
172.7 K, Liquid | 145.15
174.37 K, Liquid | 146.25
174.69 K, Liquid | 145.71
